According to BindingDB's records for doi:10.1016/0166-4328(96)00087-3 (Smithkline Beecham Pharmaceuticals, 1996):
pKi: −log10 of the molar value. Where “and” joins values, the source holds several entries; their conditions need not be identical. Equal values may be shown once.

Assays:
[1] = biological target: 5-hydroxytryptamine receptor 2A (Rattus norvegicus, UniProt P14842)
[2] = biological target: Histamine H1 receptor (Cavia porcellus, UniProt P31389)
[3] = biological target: 5-hydroxytryptamine receptor 1B (Homo sapiens, UniProt P28222)
[4] = biological target: 5-hydroxytryptamine receptor 1E (Homo sapiens, UniProt P28566)
[5] = biological target: D(2) dopamine receptor (Homo sapiens, UniProt P14416)
Sequence of D(2) dopamine receptor (Homo sapiens, UniProt P14416) (P14416 whole entry): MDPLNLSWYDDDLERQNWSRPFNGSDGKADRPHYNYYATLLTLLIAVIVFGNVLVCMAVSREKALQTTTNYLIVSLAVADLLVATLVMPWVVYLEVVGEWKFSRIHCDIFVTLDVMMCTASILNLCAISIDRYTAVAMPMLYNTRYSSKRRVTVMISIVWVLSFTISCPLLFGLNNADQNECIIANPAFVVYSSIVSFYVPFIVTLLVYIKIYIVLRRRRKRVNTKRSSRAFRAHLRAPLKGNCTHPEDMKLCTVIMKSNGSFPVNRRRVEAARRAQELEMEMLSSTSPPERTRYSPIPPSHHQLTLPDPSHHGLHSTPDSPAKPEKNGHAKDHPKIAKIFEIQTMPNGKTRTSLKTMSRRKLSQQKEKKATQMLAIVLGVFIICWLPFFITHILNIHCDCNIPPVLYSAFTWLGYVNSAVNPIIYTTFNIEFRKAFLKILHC

[6] = biological target: Alpha-1A adrenergic receptor (Rattus norvegicus, UniProt P43140)
Sequence of Alpha-1A adrenergic receptor (Rattus norvegicus, UniProt P43140) (P43140 whole entry): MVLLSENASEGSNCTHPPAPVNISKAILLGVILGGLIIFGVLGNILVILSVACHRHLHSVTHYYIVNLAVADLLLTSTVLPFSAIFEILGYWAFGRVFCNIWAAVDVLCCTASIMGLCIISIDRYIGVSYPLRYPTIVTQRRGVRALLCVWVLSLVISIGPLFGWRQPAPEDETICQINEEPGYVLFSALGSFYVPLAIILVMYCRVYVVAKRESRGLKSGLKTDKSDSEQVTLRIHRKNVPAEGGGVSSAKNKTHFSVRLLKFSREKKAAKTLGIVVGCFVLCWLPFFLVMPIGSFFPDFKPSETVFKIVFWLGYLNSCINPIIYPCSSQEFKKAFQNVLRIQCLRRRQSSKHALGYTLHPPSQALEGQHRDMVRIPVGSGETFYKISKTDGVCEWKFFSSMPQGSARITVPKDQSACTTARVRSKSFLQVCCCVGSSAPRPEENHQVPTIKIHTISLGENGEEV

[7] = biological target: D(1A) dopamine receptor (Homo sapiens, UniProt P21728)
[8] = biological target: Gamma-aminobutyric acid receptor subunit alpha-1 (Rattus norvegicus, UniProt P62813)
[9] = biological target: 5-hydroxytryptamine receptor 2B (Rattus norvegicus, UniProt P30994)
Sequence of 5-hydroxytryptamine receptor 2B (P30994 whole entry): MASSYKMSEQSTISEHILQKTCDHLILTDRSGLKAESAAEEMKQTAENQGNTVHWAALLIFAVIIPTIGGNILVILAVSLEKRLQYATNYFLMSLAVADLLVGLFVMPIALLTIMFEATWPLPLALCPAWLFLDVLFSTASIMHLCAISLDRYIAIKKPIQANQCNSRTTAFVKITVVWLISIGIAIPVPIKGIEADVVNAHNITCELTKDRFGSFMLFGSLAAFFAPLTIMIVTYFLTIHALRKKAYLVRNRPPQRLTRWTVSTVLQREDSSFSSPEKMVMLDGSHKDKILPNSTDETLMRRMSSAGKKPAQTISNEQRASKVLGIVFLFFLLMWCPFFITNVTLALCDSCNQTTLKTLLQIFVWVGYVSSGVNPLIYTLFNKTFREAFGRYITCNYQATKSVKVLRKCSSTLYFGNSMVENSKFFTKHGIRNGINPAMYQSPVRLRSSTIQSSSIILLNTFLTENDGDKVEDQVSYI

[10] = biological target: 5-hydroxytryptamine receptor 2C (Sus scrofa, UniProt G7ZKZ7)
[11] = biological target: 5-hydroxytryptamine receptor 4 (Sus scrofa, UniProt Q29006)
Sequence of 5-hydroxytryptamine receptor 4 (Q29006 whole entry): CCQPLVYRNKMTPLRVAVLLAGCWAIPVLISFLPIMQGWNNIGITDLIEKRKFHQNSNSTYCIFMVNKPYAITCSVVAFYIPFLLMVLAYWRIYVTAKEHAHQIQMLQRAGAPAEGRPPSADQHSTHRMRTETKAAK

[12] = biological target: Alpha-2C adrenergic receptor (Rattus norvegicus, UniProt P22086)
Sequence of Alpha-2C adrenergic receptor (P22086 whole entry): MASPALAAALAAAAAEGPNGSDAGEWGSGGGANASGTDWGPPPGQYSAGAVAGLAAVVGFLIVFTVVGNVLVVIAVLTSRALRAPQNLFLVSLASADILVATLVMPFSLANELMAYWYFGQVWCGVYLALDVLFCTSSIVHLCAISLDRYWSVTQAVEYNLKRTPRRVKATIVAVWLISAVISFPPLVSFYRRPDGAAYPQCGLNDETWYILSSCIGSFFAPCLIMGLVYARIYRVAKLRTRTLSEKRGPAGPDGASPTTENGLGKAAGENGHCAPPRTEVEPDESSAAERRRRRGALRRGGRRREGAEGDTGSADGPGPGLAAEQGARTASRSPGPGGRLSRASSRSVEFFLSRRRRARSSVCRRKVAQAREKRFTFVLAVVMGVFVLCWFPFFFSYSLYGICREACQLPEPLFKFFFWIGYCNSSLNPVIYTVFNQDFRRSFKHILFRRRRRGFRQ

[13] = biological target: 5-hydroxytryptamine receptor 1D (Homo sapiens, UniProt P28221)
[14] = biological target: 5-hydroxytryptamine receptor 1A (Rattus norvegicus, UniProt P19327)
Sequence of 5-hydroxytryptamine receptor 1A (P19327 whole entry): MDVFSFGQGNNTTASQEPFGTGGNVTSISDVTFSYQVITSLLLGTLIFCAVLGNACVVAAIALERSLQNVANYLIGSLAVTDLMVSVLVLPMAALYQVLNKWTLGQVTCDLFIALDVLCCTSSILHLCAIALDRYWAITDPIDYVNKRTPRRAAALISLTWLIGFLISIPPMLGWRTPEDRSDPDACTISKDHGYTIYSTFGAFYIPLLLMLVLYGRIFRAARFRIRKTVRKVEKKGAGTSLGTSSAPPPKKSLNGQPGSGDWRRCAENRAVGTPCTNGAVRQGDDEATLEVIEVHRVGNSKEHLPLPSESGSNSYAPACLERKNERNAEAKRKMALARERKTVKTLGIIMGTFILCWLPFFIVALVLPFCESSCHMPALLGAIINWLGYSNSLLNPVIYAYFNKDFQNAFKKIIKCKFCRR

[15] = biological target: D(2) dopamine receptor (Rattus norvegicus, UniProt P61169)
Sequence of D(2) dopamine receptor (Rattus norvegicus, UniProt P61169) (P61169 whole entry): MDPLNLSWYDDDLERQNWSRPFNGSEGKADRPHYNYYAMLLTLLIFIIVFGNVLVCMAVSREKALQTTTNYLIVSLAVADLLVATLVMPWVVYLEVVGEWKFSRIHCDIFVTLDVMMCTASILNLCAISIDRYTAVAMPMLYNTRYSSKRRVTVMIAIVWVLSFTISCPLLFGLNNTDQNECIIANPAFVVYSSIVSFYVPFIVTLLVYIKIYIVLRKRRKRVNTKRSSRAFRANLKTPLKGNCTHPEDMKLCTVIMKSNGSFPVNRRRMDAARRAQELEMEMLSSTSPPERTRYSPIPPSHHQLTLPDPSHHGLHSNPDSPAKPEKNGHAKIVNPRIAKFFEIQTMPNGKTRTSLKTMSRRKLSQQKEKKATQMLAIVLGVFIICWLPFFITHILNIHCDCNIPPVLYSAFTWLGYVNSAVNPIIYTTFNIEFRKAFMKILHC

[16] = biological target: 5-hydroxytryptamine 1D receptor (Bos taurus, UniProt Q8MI13)
Sequence of 5-hydroxytryptamine 1D receptor (Q8MI13 whole entry): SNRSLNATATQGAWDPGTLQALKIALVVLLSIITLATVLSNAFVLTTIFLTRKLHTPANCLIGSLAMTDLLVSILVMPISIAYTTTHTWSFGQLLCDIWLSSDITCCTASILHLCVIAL

[17] = biological target: 5-hydroxytryptamine receptor 1B (Oryctolagus cuniculus, UniProt P49144)
[18] = biological target: 5-hydroxytryptamine receptor 2A (Oryctolagus cuniculus, UniProt G1SYA7)
[19] = biological target: Alpha-1A adrenergic receptor (Oryctolagus cuniculus, UniProt O02824)
[20] = biological target: Beta-1 adrenergic receptor (Cavia porcellus, UniProt B0FL73)
[21] = biological target: Beta-2 adrenergic receptor (Sylvilagus floridanus, UniProt Q9BFY9)
[22] = biological target: Muscarinic acetylcholine receptor M3 (Sus scrofa, UniProt P11483)
[23] = biological target: D(1A) dopamine receptor (Rattus norvegicus, UniProt P18901)
Sequence of D(1A) dopamine receptor (Rattus norvegicus, UniProt P18901) (P18901 whole entry): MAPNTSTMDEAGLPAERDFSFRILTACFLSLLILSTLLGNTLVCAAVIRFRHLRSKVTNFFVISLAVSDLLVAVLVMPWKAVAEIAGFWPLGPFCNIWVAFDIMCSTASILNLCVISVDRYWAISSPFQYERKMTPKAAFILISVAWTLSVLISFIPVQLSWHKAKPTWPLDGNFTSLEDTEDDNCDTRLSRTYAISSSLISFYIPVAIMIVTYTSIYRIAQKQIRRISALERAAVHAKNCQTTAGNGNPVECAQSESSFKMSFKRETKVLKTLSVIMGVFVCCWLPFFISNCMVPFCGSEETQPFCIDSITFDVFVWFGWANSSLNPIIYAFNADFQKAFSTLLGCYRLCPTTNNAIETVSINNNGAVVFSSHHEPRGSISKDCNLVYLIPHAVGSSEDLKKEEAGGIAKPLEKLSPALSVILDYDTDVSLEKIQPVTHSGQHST

[24] = biological target: Histamine H2 receptor (Oryctolagus cuniculus, UniProt G1TWL8)
[25] = biological target: Beta-1 adrenergic receptor (Rattus norvegicus, UniProt P18090)
[26] = biological target: 5-hydroxytryptamine receptor 2C (Rattus norvegicus, UniProt P08909)
[27] = biological target: 5-hydroxytryptamine receptor 1D (Cavia porcellus, UniProt Q60484)
[28] = biological target: 5-hydroxytryptamine receptor 3A (Rattus norvegicus, UniProt P35563)
[29] = biological target: Alpha-2B adrenergic receptor (Rattus norvegicus, UniProt P19328)
[30] = biological target: Beta-2 adrenergic receptor (Rattus norvegicus, UniProt P10608)
[31] = biological target: 5-hydroxytryptamine receptor 2C (Homo sapiens, UniProt P28335)
Sequence of 5-hydroxytryptamine receptor 2C (Homo sapiens, UniProt P28335) (P28335 whole entry): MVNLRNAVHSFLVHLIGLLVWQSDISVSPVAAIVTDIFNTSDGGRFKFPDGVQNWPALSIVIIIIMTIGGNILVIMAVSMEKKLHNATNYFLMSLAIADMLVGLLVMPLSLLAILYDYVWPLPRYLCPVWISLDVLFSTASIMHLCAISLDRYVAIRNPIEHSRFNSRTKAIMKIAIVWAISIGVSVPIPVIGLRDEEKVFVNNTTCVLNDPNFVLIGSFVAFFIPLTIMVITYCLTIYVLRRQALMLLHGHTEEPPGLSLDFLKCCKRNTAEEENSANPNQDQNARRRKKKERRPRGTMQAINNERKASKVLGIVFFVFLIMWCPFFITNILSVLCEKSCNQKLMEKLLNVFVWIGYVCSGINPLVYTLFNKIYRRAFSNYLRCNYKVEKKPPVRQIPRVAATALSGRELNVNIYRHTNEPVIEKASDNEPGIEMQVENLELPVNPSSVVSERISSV

[32] = biological target: Alpha-2A adrenergic receptor (Homo sapiens, UniProt P08913)

Sequence of 5-hydroxytryptamine receptor 2A (Rattus norvegicus, UniProt P14842) (P14842 whole entry): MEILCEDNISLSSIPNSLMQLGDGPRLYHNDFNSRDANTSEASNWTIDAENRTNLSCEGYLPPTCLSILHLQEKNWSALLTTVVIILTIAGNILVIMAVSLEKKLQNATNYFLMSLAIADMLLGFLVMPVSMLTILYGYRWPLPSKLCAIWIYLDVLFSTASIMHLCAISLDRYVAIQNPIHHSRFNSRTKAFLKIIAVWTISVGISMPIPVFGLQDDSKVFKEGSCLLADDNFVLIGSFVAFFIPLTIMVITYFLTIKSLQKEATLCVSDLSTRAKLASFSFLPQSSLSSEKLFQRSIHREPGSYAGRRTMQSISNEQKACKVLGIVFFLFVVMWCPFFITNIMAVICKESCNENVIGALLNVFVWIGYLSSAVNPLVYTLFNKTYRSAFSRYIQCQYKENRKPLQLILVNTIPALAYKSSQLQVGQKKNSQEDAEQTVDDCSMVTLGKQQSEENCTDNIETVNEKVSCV
Sequence of Histamine H1 receptor (P31389 whole entry): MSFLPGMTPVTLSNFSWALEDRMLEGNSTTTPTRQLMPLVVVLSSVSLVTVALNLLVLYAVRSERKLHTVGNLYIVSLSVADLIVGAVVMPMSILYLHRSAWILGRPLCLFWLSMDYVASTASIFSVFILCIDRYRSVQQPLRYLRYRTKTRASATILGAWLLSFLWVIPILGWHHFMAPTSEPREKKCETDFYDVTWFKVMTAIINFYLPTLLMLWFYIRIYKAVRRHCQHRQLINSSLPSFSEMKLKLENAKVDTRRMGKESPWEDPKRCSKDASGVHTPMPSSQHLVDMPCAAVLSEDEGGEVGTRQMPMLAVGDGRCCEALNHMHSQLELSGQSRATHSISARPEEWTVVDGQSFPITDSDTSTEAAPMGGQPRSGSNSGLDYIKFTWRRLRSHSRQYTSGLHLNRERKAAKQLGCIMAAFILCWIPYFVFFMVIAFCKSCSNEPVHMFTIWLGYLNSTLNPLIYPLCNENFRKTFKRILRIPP

Compound: Cc1cc(NC(=O)Nc2ccc3c(ccn3C)c2)sn1 [CAS_3277600]
- pKi [1]: 5.30
- pKi [2]: < 5.00
- pKi [3]: < 5.00
- pKi [4]: < 5.00
- pKi [5]: < 5.00
- pKi [6]: 6.00
- pKi [7]: < 5.00
- pKi [8]: < 5.00
- pKi [9]: 7.80 and 7.30
- pKi [10]: 6.00
- pKi [11]: < 5.00
- pKi [12]: 6.00

Compound: CC(N)Cc1c[nH]c2ccc(OCc3cccs3)cc12 (stereo not drawn) [NSC_5311036]
- pKi [1]: 5.40
- pKi [2]: < 5.00
- pKi [13]: 6.60
- pKi [14]: 5.90
- pKi [15]: < 5.00
- pKi [16]: 6.30
- pKi [17]: < 5.00
- pKi [18]: < 5.00
- pKi [9]: 7.60
- pKi [11]: < 5.00
- pKi [19]: < 5.00
- pKi [12]: < 5.00
- pKi [20]: < 5.00
- pKi [21]: < 5.00
- pKi [22]: < 5.00
- pKi [23]: < 5.00
- pKi [24]: < 5.00

Compound: Cn1ccc2cc(NC(=O)Nc3cccnc3)ccc21 [SB 200646]
- pKi [1]: 5.20 and 5.30
- pKi [14]: < 5.00
- pKi [25]: < 5.00
- pKi [5]: < 5.00
- pKi [6]: < 5.00
- pKi [26]: 6.90
- pKi [27]: < 5.00
- pKi [9]: 7.50 and 7.20
- pKi [28]: < 5.00
- pKi [29]: < 5.00
- pKi [23]: < 5.00
- pKi [30]: < 5.00
- pKi [31]: 7.00
- pKi [32]: < 5.00
